This is an account of results in US7507335B2, “Dendrimer fluid purification agent and article” (KWG Technology, priority 2003, dated 2009).

For one experiment, the system named is Pseudomonas aerugentoas. As to the kind of experiment: Paper disc zone of inhibition test (Example Two). Format: cell-based. The note with it: 6-millimeter disc, 10 microliters, 24 hours. As for the experimental part: (§1) A second sample of a dendrimer silver complex was tested against various concentrations of silver nitrate against both E. coli and Pseudomonas aerugentoas. The experiment was performed as follows: • 1. Prepare an inoculum of the test organisms by streaking the entire surface of agar plates, by the standard method for colony isolation, with ether E. coli or pseudomonas aerugentoas. The plates were incubated at 370 C for approximately 18 hours. • 2. Harvest all the growth on the test organism plates by flooding the plats with 9.0 ml of sterile distilled water per plate. Wash the harvested biomass by centrifugation for 1 hour at 3000 rpm, discarding the supernatant fluid, and resuspending in 9.0 ml of sterile distilled water. Resuspend harvested cell by vortex agitation for 1 minute. • 3. Inoculate test plates with 0.2 ml with the test organism prepare as described above. • 4. Place sterile 6-millimeter blank paper Discs on test plates and saturate with 10 microliters of the test substances. • 5. […]

In another experiment the test system is E. coli. Format: cell-based. The note with it: 6-millimeter disc, 10 microliters, 24 hours. As for the experimental part:
as §1

Like-named read-outs stand apart in the source and are kept apart here.

`O=[N+]([O-])[O-].[Ag+]` [Silver Nitrate]: the “Pseudomonas (diameter of inhibitory zone)” value in the experiment on Pseudomonas aerugentoas (0.5% Silver Nitrate) was 12 millimeters; with Pseudomonas aerugentoas (1.0% Silver Nitrate), 9 millimeters; in the experiment with Pseudomonas aerugentoas (2.5% Silver Nitrate) it was 6 millimeters; with Pseudomonas aerugentoas (5.0% Silver Nitrate) it was 6 millimeters; with Pseudomonas aerugentoas (7.5% Silver Nitrate), 7 millimeters; in the experiment with Pseudomonas aerugentoas (10.0% Silver Nitrate), 11 millimeters. For the same compound, the “E. Coli (diameter of inhibitory zone)” value in the experiment on E. coli (0.5% Silver Nitrate), in the experiment with E. coli (1.0% Silver Nitrate), with E. coli (2.5% Silver Nitrate), with E. coli (5.0% Silver Nitrate), in the experiment with E. coli (7.5% Silver Nitrate) and in the experiment on E. coli (10.0% Silver Nitrate) was 6 millimeters in each case.
